Reference: ChEMBL document CHEMBL1144845, “Ligand binding efficiency: trends, physical basis, and implications” (J Med Chem, 2008)

Assay: Binding affinity to carbonic anhydrase

Log Ki | SMILES
-6.5 | Cc1ccc(S(N)(=O)=O)cc1 [P-TOLUENESULFONAMIDE]
-9.7 | CN1C(CN2CCOCC2)=Cc2sc(S(N)(=O)=O)cc2S1(=O)=O
-6.6 | CC(C)(C)c1ccc(C(=O)Nc2ccccc2S(N)(=O)=O)cc1
